Where two headings read alike, the source gives them in different places.
Tests used:
[1] = system: Haemophilus influenza (5 strains); assay: MIC range, broader panel of Quotient Bioresearch strains (Table 4); assay type: cell-based, Haemophilus influenzae
[2] = system: Bacterial strains injected into thigh muscles; assay type: in vivo, mice; details: 30 mg/kg TDS p.o.

Structure (SMILES): Cc1c(-c2ccc3[nH]ncc3c2)ccn2c(=O)c(C(=O)[O-])cc(C3CC3)c12.[K+] [Example 23 K salt, potassium 1-cyclopropyl-8-(1H-indazol-5-yl)-9-methyl-4-oxo-4H-quinolizine-3-carboxylate]
- MIC50 ([1]; 16 h, Median of the strain panel): ≤ 0.015 µg/mL
- MIC ([1]; High of the strain panel, read-out: MIC Range High, Haemophilus influenza (5 strains)): ≤ 0.015 µg/mL
- MIC ([1]; Low of the strain panel, read-out: MIC Range Low, Haemophilus influenza (5 strains)): ≤ 0.015 µg/mL
- Log reduction (LgR) from vehicle control (CFU/g) ([2]; E. coli ATCC 25922, mouse thigh): 2.82
- Log reduction (LgR) from vehicle control (CFU/g) ([2]; MRSA ATCC 43300, mouse thigh): 4.66
